{
  "source": "patent US6743448B2",
  "about": "(priority 2000, dated 2004)",
  "origin": "cited, not measured here",
  "key": {"IGF-I mRNA": {"system": "IGF-I mRNA", "settings": "relative to hypophysectomized control animals"}, "prostatic cells": {"system": "prostatic cells", "settings": "1 nM for 2-7 days"}, "[1]": {"system": "formation of DHT and androstenedione", "settings": "14C-testosterone as substrate, effective inhibitory concentrations, n 4, p<0.001"}},
  "data": [
    {"smiles": "C[C@]12CCC(=O)C[C@@H]1CC[C@@H]1[C@@H]2CC[C@]2(C)[C@@H](O)CC[C@@H]12", "note": "[DHT, dihydrotestosterone]", "values": [
      {"measurement": "Increase of the IGF-I mRNA level", "setting": "IGF-I mRNA", "result": 40, "unit": "times"}
    ]},
    {"smiles": "COc1ccc2[nH]cc(CCNC(C)=O)c2c1", "note": "[Melatonin, melatonin]", "values": [
      {"measurement": "Effect on cell growth", "setting": "prostatic cells", "result": "inhibit cell growth"}
    ]},
    {"smiles": "CC(=O)[C@H]1CC[C@H]2[C@@H]3CCC4=CC(=O)CC[C@]4(C)[C@H]3CC[C@]12C", "note": "[Progesterone, progesterone]", "values": [
      {"measurement": "Inhibition of the formation of DHT", "setting": "[1]", "result": 10, "unit": "fold"},
      {"measurement": "Inhibition of the formation of androstenedione", "setting": "[1]", "result": "3-5 fold"}
    ]},
    {"smiles": "C[C@]12CC[C@H]3[C@@H](CCC4=CC(=O)CC[C@@]43C)[C@@H]1CC[C@@H]2O", "note": "[Testosterone, (17)-17-Hydroxyandrost-4-en-3-one]", "values": [
      {"measurement": "Increase of the IGF-I mRNA level", "setting": "IGF-I mRNA", "result": 30, "unit": "times"}
    ]}
  ]
}
